Laboratory results as given in US20120082659A1, “Methods And Compositions Related To Synergistic Responses To Oncogenic Mutations” (priority 2007, published 2012).

How the values were obtained:
mp53/Ras cells [1] = assay: Xenograft tumor formation by mp53/Ras cells in nude mice; type: in vivo, mouse; settings: for % Change in Tumor Volume (Perturbed vs. Control): mp53/Ras cells with gene perturbation, s.c. in nude mice, 4 weeks, vs matched vector control; for tumor formation in nude mice by drug-pre-treated cells: mp53/Ras cells pre-treated in vitro with 2.5 mM, xenograft, vs untreated cells
Experimental: (§1) Murine mp53/Ras cells were grown at 39° C. for 2 days prior to injection. Human HT-29 and DLD-1 cells were grown in standard conditions, described above. Tumor formation was assessed by sub-cutaneous injection of 5×10^5 cells (mp53/Ras and DLD-1 cells) or 1.25×10^5 cells (HT-29) into CD-1 nude mice (Cr1:CD-1-Foxn1nu, Charles River Laboratories) in appropriate media (RPMI 1640 or DMEM) with no additives. For each replicate of all gene perturbations, 2-12 injections were performed for perturbed cells and vector controls, as indicated in FIGS. 12 and 16. Tumor size was measured by caliper at 2, 3 and 4 weeks post-injection. Tumor volume was calculated by the formula volume=(4/3)πr3, using the average of two radius measurements. Tumor reduction was calculated based on the average tumor volume following each gene perturbation as compared to the directly matched vector control tumors. Statistical significance of difference in tumor size was calculated by the Wilcoxn signed-rank test (Hollander, M. & Wolfe, D. A. Nonparametric Statistical Methods (Wiley-Interscience, Hoboken, N.J., 1998)), comparing tumors derived from perturbed cells with tumors induced by directly matching vector control cells.
Tumor formation was assessed by sub-cutaneous injection of cells into CD-1 nude mice (Cr1: CD-1-Foxn1^nu, Charles River Laboratories). Tumor size was measured by caliper at 2, 3 and 4 weeks post-injection. Significance of difference in tumor size was calculated by the Wilcoxn signed-rank test and by the t-test using directly matching vector control cells for each perturbation.
For tumor formation studies, cells were treated with HDACi as indicated above, then trypsinized, counted and injected sub-cutaneously into the flanks of CD-1 nude mice at a multiplicity of 5×10^5 cells per injection. Mice were observed and tumors measured for 4 weeks post-injection by caliper.
Murine mp53/Ras cells were grown at 39° C. for 2 days prior to injection. Human CaPan-2 and PC3 cells were grown in standard conditions, described above. Tumor formation was assessed by sub-cutaneous injection of 5×10^5 mp53/Ras cells or 7.5×10^5 CaPan-2 or PC3 cells into CD-1 nude mice (Cr1: CD-1-Foxn1^nu, Charles River Laboratories) in appropriate media (RPMI 1640 or DMEM) with no additives. For each replicate of all gene perturbations, 2-12 injections were performed for perturbed cells and vector controls. Tumor size was measured by caliper weekly for up to 6 weeks post-injection. Tumor volume was calculated by the formula volume=(4/3)πr^3, using the average of two radius measurements. Tumor reduction was calculated based on the average tumor volume following each gene perturbation as compared to the directly matched vector control tumors. Statistical significance of difference in tumor size was calculated by both the Wilcoxn signed-rank test and the t-test to assess consistency of significance calls, comparing tumors derived from perturbed cells with tumors induced by directly matching vector control cells.

HT-29 cells = assay: Xenograft tumor formation by HT-29 colon cancer cells in nude mice; type: in vivo, human; settings: HT-29 cells with gene perturbation, vs matched vector control
Experimental: as §1

[2] = system: cooperation response genes; assay: TLDA QPCR of CRG expression in HDACi-treated mp53/Ras cells; type: cell-based, mouse; settings: 2.5 mM, 3 days, 56 CRGs tested by TLDA
Experimental: The YAMC cell system (Jat et al., 1991; Whitehead et al., 1993) and transformation of these cells by mp53/Ras are described elsewhere (Xia and Land, 2007). YAMC and mp53/Ras cells were cultured for two days at 39° C. in RPMI with 10% FBS without interferon-γ on collagen IV-coated dishes. Cells were then re-plated on collagen IV-coated dishes into the same medium containing either 2.5 mM NB, 2.5 mM VA, or no drug for 72 hours at a density of 4.58×10^5 cells per 15-cm dish. Cells were harvested for RNA isolation at this point, or used for biological assays as described below.
The TaqMan Low-Density Array (Applied Biosystems) consists of TaqMan qPCR reactions targeting the cooperation response genes available and control genes (18S rRNA, GAPDH) in a microfluidic card. TLDA were used to independently test gene expression differences observed in the CMap database which used Affymetrix arrays. To generate cDNA for qPCR analysis, quadruplicate samples of RNA was isolated from untreated YAMC cells or mp53/Ras cells treated with either 2.5 mM VA, 2.5 mM NB or no drug for 72 hours, using the RNeasy and Qiashredder kits (Qiagen). Ten μg of RNA per sample were mixed with 1× SuperScript II First Strand buffer, 10 mM DTT, 400 μM dNTP mixture, 0.3 ng random hexamer primer, 2 μL RNaseOUT RNase inhibitor and 2 μL of SuperScript II reverse transcriptase in a 100 μL reaction (all components from Invitrogen). RT reactions were carried out by denaturing RNA at 70° C. for 10 minutes, plunging RNA on to ice, adding other components, incubating at 42° C. for 1 hour and heat inactivating the RT enzyme by a final incubation at 70° C. for 10 minutes.
For each sample, 82 μL of cDNA was combined with 328 μl of nuclease free water (Invitrogen) and an equal volume of TaqMan Universal PCR Master Mix No AmpErase UNG (Applied Biosystems). The mixture was loaded into each of 8 ports on the card at 100 μL per port. Each reaction contained forward and reverse primer at a final concentration of 900 nM and a TaqMan MGB probe (6-FAM) at 250 nM final concentration. […]. The real-time RT-PCR amplifications were run on an ABI Prism 7900HT Sequence Detection System (Applied Biosystems) with a TaqMan Low Density Array Upgrade. Thermal cycling conditions were as follows: 2 min at 50° C., 10 min at 94.5° C., 40 cycles of 97° C. for 30 seconds, and annealing and extension at 59.7° C. for 1 minute. Each individual replicate cDNA sample was processed on a separate card.
Gene expression values were derived using SDS 2.2 software package (Applied Biosystems). Differential gene expression was calculated by the ΔΔCt method. Briefly, using threshold cycle (Ct) for each gene, change in gene expression was calculated for each sample comparison by the formulae: […]

mp53/Ras cells [3] = assay: Proliferation and morphology of mp53/Ras cells in adherent culture; type: cell-based, mouse; settings: for cell proliferation over time: mp53/Ras cells, 2.5 mM
From the text: (§2) These compounds affect human cancer cell line behavior in vitro in the millimolar range and even higher concentrations are required in vivo (Villar-Garea and Esteller, 2004).

mp53/Ras cells [4] = assay: Cell death / anoikis by TUNEL staining, mp53/Ras cells; type: cell-based, mouse; settings: methylcellulose without FBS or ITS-A
Experimental: (§3) The cells were re-plated at 458,000 cells per 15 cm dish in 10% FBS medium and treated for three days with 2.5 mM NB or VA at 39° C. Cells were then trypsinized and (A), (B) suspended in methylcellulose supplemented with fresh NB or VA, 10% FBS, and ITS-A at 37,000 cells per mL, or (C) suspended in methylcellulose w/o FBS, or ITS-A at 150,000 cells per mL and incubated at 39° C. for three days. Cells were extracted from the methylcellulose by repeated re-suspension in PBS w/1% BSA and centrifugation, and briefly trypsinized to break up cell aggregates. The extracted cells were labeled with 10 μM BrdU for ninety minutes prior to harvesting, fixed in cold 80% ethanol, and stained with an anti-BrdU antibody and propidium iodide to measure cell cycle progression (A), or fixed in 4% paraformaldehyde, and TUNEL-stained to measure cell death (B), (C). Error bars represent standard deviation values derived from multiple independent measurements for each sample. […]
(§4) For anoikis assays, cells were then trypsinized, counted and suspended in methylcellulose at a density of 1.5×10^5 cells/mL for an additional 72 hours in the absence of HDACi. […]
(§5) Paraformaldehyde-fixed cells were pelleted and washed with PBS containing 0.1% BSA. […] TUNEL-stained cells were analyzed by flow cytometry using a FACScalibur (Becton Dickinson). The percentage of TUNEL-positive cells was analyzed using ModFit LT for Mac v2.0.

YAMC cells [5] = assay: Cell death / anoikis by TUNEL staining, YAMC cells; type: cell-based, mouse; settings: methylcellulose without FBS or ITS-A
Experimental: as §3, §4, §5

YAMC cells [6] = assay: Proliferation and morphology of YAMC cells in adherent culture; type: cell-based, mouse; settings: 5 mM, three days, 10% FBS medium
From the text: as §2

Slc14a1: shRNA-dependent stable knock-down of up-regulated CRG Slc14a1 (retroviral) (sense TCCTGATTCTGGTGGGACT; the letters are possibly those of the target site)
% Change in Tumor Volume (Perturbed vs. Control) (mp53/Ras cells [1]): 180%

Rgs2: shRNA-dependent stable knock-down of up-regulated CRG Rgs2 (retroviral) (sense GCGCAGCTCTGGGCAGAAG; the letters are possibly those of the target site)
% Change in Tumor Volume (Perturbed vs. Control) (mp53/Ras cells [1]): −60%

Plac8: shRNA-dependent stable knock-down of up-regulated CRG Plac8 (retroviral) (sense CTGGCAGACCAGCCTGTGTTT; the letters are possibly those of the target site)
% Change in Tumor Volume (Perturbed vs. Control) (mp53/Ras cells [1]): −100% | % Change in Tumor Volume (Perturbed vs. Control) (HT-29 cells): −100.00%

CCCC(CCC)C(=O)O [valproic acid]
tumor formation in nude mice by drug-pre-treated cells (mp53/Ras cells [1]; four weeks): significantly smaller tumors | proportion of CRGs whose expression is significantly altered (reversal of CRG signature) [2]: ~55% | proportion of CRGs whose expression is significantly altered (reversal of CRG signature) ([2]; listed as VA): about 55% | cell proliferation over time (mp53/Ras cells [3]): completely inhibited

CCCC(=O)[O-].[Na+] [sodium butyrate]
tumor formation in nude mice by drug-pre-treated cells (mp53/Ras cells [1]; four weeks): significantly smaller tumors | NB Tumors (mp53/Ras cells [1]; mp53/Ras cells treated with 2.5 mM NB for three days before injection, 500,000 cells s.c. in CD1 nude mice, four weeks, tumors/injections): 1/16 | increase in cell death (TUNEL) (mp53/Ras cells [4]): greater than five-fold | proportion of CRGs whose expression is significantly altered (reversal of CRG signature) [2]: ~55% | proportion of CRGs whose expression is significantly altered (reversal of CRG signature) ([2]; listed as NB): about 55% | apoptosis (TUNEL) (YAMC cells [5]): did not decrease apoptosis | cell morphology (YAMC cells [6]): unaffected | cell proliferation over time (mp53/Ras cells [3]): completely inhibited | cell morphology (mp53/Ras cells [3]; transformed cells, 5 mM, three days, 10% FBS medium): dramatic morphological change

Sod3: shRNA-dependent stable knock-down of up-regulated CRG Sod3 (retroviral) (sense GGCGACACGCATGCCAAAG; target site or template, no part of the molecule)
% Change in Tumor Volume (Perturbed vs. Control) (mp53/Ras cells [1]): −72%
